# Patent US20170253601A1, “Substituted Pyrrolidine Compounds” (EPIZYME, INC., priority 2014, published 2017)
# pIC50: −log10 of the molar value.
# Biological target: T1, SMYD2 (Homo sapiens, UniProt Q9NRG4)
# T1 construct: Full length SMYD2 (NP 064582.2) was cloned; His6 (N, cleaved yes); FLAG (N); made in house; host or cells: Sf9 insect cells
# Assay: SMYD2 Biochemical Assay (3H-SAM, biotinylated peptide substrate, Flashplate)
# Settings: Table 1; average of n = 1 to n = 50; read-out: SMYD2 Biochem IC50
# Summary of the method: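 Methyltransferase activity tracked as 3H transfer from 10 nM 3H-SAM to 60 nM biotinylated peptide, counted after streptavidin Flashplate capture and normalised to DMSO and 1000 uM SAH controls. Enzyme: 1.5 nM full-length Sf9-expressed SMYD2, 30 min compound pre-incubation at room temperature, in Bicine pH 7.6 buffer with 2% DMSO; reactions quenched with 600 uM unlabelled SAM; IC50 from 3- or 4-parameter fit.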
# T1 sequence (Q9NRG4 whole entry): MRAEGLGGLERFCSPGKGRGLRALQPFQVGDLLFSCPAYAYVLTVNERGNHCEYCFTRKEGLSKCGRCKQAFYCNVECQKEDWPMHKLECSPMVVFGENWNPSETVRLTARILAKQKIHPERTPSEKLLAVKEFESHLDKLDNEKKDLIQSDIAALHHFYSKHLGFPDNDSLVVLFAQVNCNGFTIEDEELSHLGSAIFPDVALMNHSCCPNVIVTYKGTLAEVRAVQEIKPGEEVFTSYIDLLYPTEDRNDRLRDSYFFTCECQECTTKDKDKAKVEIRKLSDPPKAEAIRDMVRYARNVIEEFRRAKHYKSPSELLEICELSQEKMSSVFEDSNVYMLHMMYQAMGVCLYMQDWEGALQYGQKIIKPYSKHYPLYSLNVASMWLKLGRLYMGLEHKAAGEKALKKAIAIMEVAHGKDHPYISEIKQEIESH
row,SMILES,pIC50
1,"O=C(NC1CCN(Cc2ccccc2)C1=O)c1cc(C2CC2)on1 (centres unmarked) [compound 27, N-(1-benzyl-2-oxopyrrolidin-3-yl)-5-cyclopropylisoxazole-3-carboxamide]",< 4.30
2,"CC1CC(NC(=O)c2cc(C3CC3)on2)CN1Cc1ccccc1 (centres unmarked) [compound 21, N-(1-benzyl-5-methylpyrrolidin-3-yl)-5-cyclopropyl-isoxazole-3-carboxamide]",4.35
3,"CN1CCC(NC(=O)c2cc(C3CC3)on2)C1c1ccc(Cl)c(F)c1 (centres unmarked) [compound 7, N-(2-(4-chloro-3-fluorophenyl)-1-methylpyrrolidin-3-yl)-5-cyclo-propylisoxazole-3-carboxamide]",< 4.30
4,"CC(=O)Nc1ccc(S(=O)(=O)N2CC[C@@H](NC(=O)c3cc(C4CC4)on3)C2)cc1 [compound 2, (R)-N-(1-((4-acetamido-phenyl)sulfonyl)pyrrolidin-3-yl)-5-cyclopropyl-isoxazole-3-carboxamide]",< 4.30
5,"NCCCC(=O)N1CC[C@@H](NC(=O)c2cc(C3CC3)on2)C1 [compound 30, (R)-N-(1-(4-amino-butanoyl)pyrrolidin-3-yl)-5-cyclopropyl-isoxazole-3-carboxamide]",< 4.30
6,"C[C@@H]1C[C@H](NC(=O)c2cc(C3CC3)on2)C(=O)N1c1cnn(C)c1 (racemic) [compound 19, (±)-cis-5-cyclopropyl-N-(5-methyl-1-(1-methyl-1H-pyrazol-4-yl)-2-oxopyrrolidin-3-yl)isoxazole-3-carboxamide]",< 4.30
7,"O=C(N[C@H]1CCNC1)c1cc(C2CC2)on1 [compound 3, (S)-5-cyclopropyl-N-(pyrrolidin-3-yl)isoxazole-3-carboxamide]",4.31
8,"CN1C[C@H](NC(=O)c2cc(C3CC3)on2)[C@@H](c2ccccc2)C1 (racemic) [compound 18, (±)-trans-5-cyclopropyl-N-(1-methyl-4-phenylpyrrolidin-3-yl)isoxazole-3-carboxamide]",< 4.30
9,"CN1CCC(NC(=O)c2cc(C3CC3)on2)C1c1ccccc1 (centres unmarked) [compound 5, 5-cyclopropyl-N-(1-methyl-2-phenyl-pyrrolidin-3-yl)isoxazole-3-carboxamide]",< 4.30
10,"O=C(N[C@@H]1CCNC1)c1cc(C2CC2)on1 [compound 4, (R)-5-cyclopropyl-N-(pyrrolidin-3-yl)isoxazole-3-carboxamide]",< 4.30
11,"CC1CC(NC(=O)c2cc(C3CC3)on2)C(=O)N1c1ccccc1 (centres unmarked) [compound 11, 5-cyclopropyl-N-(5-methyl-2-oxo-1-phenylpyrrolidin-3-yl)isoxazole-3-carboxamide]",< 4.30
12,"Cn1ccc(N2CCC(NC(=O)c3cc(C4CC4)on3)C2=O)n1 (centres unmarked) [compound 15, 5-cyclopropyl-N-(1-(1-methyl-1H-pyrazol-3-yl)-2-oxopyrrolidin-3-yl)isoxazole-3-carboxamide]",< 4.30
13,"O=C(NC1CCN(C2CC2)C1c1ccc(F)c(F)c1)c1cc(C2CC2)on1 (centres unmarked) [compound 8, 5-cyclopropyl-N-(1-cyclopropyl-2-(3,4-difluoro-phenyl)pyrrolidin-3-yl)isoxazole-3-carboxamide]",< 4.30
14,"CN1CCC(NC(=O)c2cc(C3CC3)on2)C1c1ccc(F)c(F)c1 (centres unmarked) [compound 9, 5-cyclopropyl-N-(2-(3,4-difluorophenyl)-1-methylpyrrolidin-3-yl)isoxazole-3-carboxamide]",< 4.30
15,"O=C(NC1CC(=O)N(Cc2ccccc2)C1)c1cc(C2CC2)on1 (centres unmarked) [compound 26, N-(1-benzyl-5-oxopyrrolidin-3-yl)-5-cyclopropylisoxazole-3-carboxamide]",< 4.30
16,"CN1CCC(NC(=O)c2cc(C3CC3)on2)C1c1ccc(F)cc1 (centres unmarked) [compound 13, 5-cyclopropyl-N-(2-(4-fluorophenyl)-1-methylpyrrolidin-3-yl)isoxazole-3-carboxamide]",< 4.30
17,"CC1CC(NC(=O)c2cc(C3CC3)on2)CN1c1ccccc1 (centres unmarked) [compound 10, 5-cyclopropyl-N-(5-methyl-1-phenylpyrrolidin-3-yl)isoxazole-3-carboxamide]",< 4.30
18,"O=C(NC1CC(=O)N(c2ccccc2)C1)c1cc(C2CC2)on1 (centres unmarked) [compound 25, 5-cyclopropyl-N-(5-oxo-1-phenylpyrrolidin-3-yl)isoxazole-3-carboxamide]",< 4.30
19,"O=C(NC1CCN(c2ccccc2)C1=O)c1cc(C2CC2)on1 (centres unmarked) [compound 28, 5-cyclopropyl-N-(2-oxo-1-phenyl-pyrrolidin-3-yl)isoxazole-3-carboxamide]",< 4.30
20,"CC1CC(NC(=O)c2cc(C3CC3)on2)CN1C1CC1 (centres unmarked) [compound 22, 5-cyclopropyl-N-(1-cyclopropyl-5-methylpyrrolidin-3-yl)isoxazole-3-carboxamide]",< 4.30
21,"N[C@H]1CC[C@H](C(=O)N2CC[C@@H](NC(=O)c3cc(C4CC4)on3)C2)CC1 [compound 31, N-((R)-1-((1r,4r)-4-aminocyclohexane-1-carbonyl)pyrrolidin-3-yl)-5-cyclopropyl-isoxazole-3-carboxamide]",< 4.30
22,"CN1CCC(NC(=O)c2cc(C3CC3)on2)C1 (centres unmarked) [compound 29, 5-cyclopropyl-N-(1-methylpyrrolidin-3-yl)isoxazole-3-carboxamide]",< 4.30

# Now from value to compound:
row,pIC50,SMILES
1,< 4.30,"CN1C[C@H](NC(=O)c2cc(C3CC3)on2)[C@H](c2ccccc2)C1 (racemic) [compound 17, (±)-cis-5-cyclopropyl-N-((1-methyl-4-phenylpyrrolidin-3-yl)isoxazole-3-carboxamide]"
2,< 4.30,"C[C@H]1C[C@H](NC(=O)c2cc(C3CC3)on2)C(=O)N1c1cnn(C)c1 (racemic) [compound 20, (±)-trans 5-cyclopropyl-N-(5-methyl-1-(1-methyl-1H-pyrazol-4-yl)-2-oxopyrrolidin-3-yl)isoxazole-3-carboxamide]"
3,< 4.30,"NCCCS(=O)(=O)N1CC[C@@H](NC(=O)c2cc(C3CC3)on2)C1 [compound 34, (R)-N-(1-((3-amino-propyl)sulfonyl)pyrrolidin-3-yl)-5-cyclopropyl-isoxazole-3-carboxamide]"
4,< 4.30,"CC(C)N1CCC(NC(=O)c2cc(C3CC3)on2)C1c1ccc(F)c(F)c1 (centres unmarked) [compound 12, 5-cyclopropyl-N-(2-(3,4-difluorophenyl)-1-isopropylpyrrolidin-3-yl)isoxazole-3-carboxamide]"
5,< 4.30,"CN1C(=O)CC(NC(=O)c2cc(C3CC3)on2)C1c1ccc(F)cc1 (centres unmarked) [compound 14, 5-cyclopropyl-N-(2-(4-fluorophenyl)-1-methyl-5-oxopyrrolidin-3-yl)isoxazole-3-carboxamide]"
6,< 4.30,"CC(c1ccccc1)N1CCC(NC(=O)c2cc(C3CC3)on2)C1 (centres unmarked) [compound 24, 5-cyclopropyl-N-(1-(1-phenylethyl)pyrrolidin-3-yl)isoxazole-3-carboxamide]"
7,5.29,"CC1CN(C2CC2)CC1NC(=O)c1cc(C2CC2)on1 (centres unmarked) [compound 23, 5-cyclopropyl-N-(1-cyclopropyl-4-methylpyrrolidin-3-yl)isoxazole-3-carboxamide]"
8,< 4.30,"COc1cccc(C2C(NC(=O)c3cc(C4CC4)on3)CCN2C2CC2)c1 (centres unmarked) [compound 16, 5-cyclopropyl-N-(1-cyclopropyl-2-(3-methoxy-phenyl)pyrrolidin-3-yl)isoxazole-3-carboxamide]"
9,< 4.30,"NCCCS(=O)(=O)N1CC[C@H](NC(=O)c2cc(C3CC3)on2)C1 [compound 35, (S)-N-(1-((3-amino-propyl)sulfonyl)pyrrolidin-3-yl)-5-cyclopropyl-isoxazole-3-carboxamide]"
10,< 4.30,"NCCCC(=O)N1CC[C@H](NC(=O)c2cc(C3CC3)on2)C1 [compound 32, (S)-N-(1-(4-amino-butanoyl)pyrrolidin-3-yl)-5-cyclopropyl-isoxazole-3-carboxamide]"
11,< 4.30,"CC(=O)Nc1ccc(S(=O)(=O)N2CC[C@H](NC(=O)c3cc(C4CC4)on3)C2)cc1 [compound 1, (S)-N-(1-((4-acetamido-phenyl)sulfonyl)pyrrolidin-3-yl)-5-cyclopropyl-isoxazole-3-carboxamide]"
12,< 4.30,"N[C@H]1CC[C@H](C(=O)N2CC[C@H](NC(=O)c3cc(C4CC4)on3)C2)CC1 [compound 33, N-((S)-1-((1r,4s)-4-aminocyclohexane-1-carbonyl)pyrrolidin-3-yl)-5-cyclopropyl-isoxazole-3-carboxamide]"
13,< 4.30,"Cc1cc(N2CCC(NC(=O)c3cc(C4CC4)on3)C2=O)n(C)n1 (centres unmarked) [compound 6, 5-cyclopropyl-N-(1-(1,3-dimethyl-1H-pyrazol-5-yl)-2-oxopyrrolidin-3-yl)isoxazole-3-carboxamide]"
